Values of other authors as cited in patent US9668986B2, “Ophthalmic, intra-articular or intravesical preparations containing N-acyl-ethanolamines” (EPITECH GROUP S.R.I., priority 2014, dated 2017).

Key:
CB2 = CB2 (Homo sapiens, UniProt P34972)
[1] = target: cannabinoid receptors CB1 (Homo sapiens, UniProt P21554)
Sequence of cannabinoid receptors CB1 (P21554 whole entry): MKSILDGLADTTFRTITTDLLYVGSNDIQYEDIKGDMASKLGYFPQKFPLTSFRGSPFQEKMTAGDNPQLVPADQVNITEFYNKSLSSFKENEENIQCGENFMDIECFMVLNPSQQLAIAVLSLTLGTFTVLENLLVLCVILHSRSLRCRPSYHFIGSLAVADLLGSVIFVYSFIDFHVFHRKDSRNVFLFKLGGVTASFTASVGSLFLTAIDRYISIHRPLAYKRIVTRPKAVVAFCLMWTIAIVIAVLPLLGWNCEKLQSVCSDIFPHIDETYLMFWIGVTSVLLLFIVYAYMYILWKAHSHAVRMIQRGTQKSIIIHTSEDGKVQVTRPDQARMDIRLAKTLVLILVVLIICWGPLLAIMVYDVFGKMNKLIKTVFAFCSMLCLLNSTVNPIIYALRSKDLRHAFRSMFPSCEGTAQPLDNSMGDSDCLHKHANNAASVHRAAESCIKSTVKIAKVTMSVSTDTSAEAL

Sequence of CB2 (P34972 whole entry, species assumed): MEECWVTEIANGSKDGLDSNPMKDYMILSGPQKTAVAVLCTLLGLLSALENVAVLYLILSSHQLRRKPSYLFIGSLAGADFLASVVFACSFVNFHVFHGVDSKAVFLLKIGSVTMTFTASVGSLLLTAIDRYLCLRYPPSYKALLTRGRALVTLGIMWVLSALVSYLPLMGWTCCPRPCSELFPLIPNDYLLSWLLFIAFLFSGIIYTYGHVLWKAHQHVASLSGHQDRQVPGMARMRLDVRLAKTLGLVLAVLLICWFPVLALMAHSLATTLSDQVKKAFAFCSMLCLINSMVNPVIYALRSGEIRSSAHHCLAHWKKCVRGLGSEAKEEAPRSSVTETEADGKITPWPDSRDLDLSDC

affinity for CB2 (CB2): poor affinity
water solubility: not water-soluble
affinity for CB1 [1]: poor affinity
SMILES: CCCCCCCCCCCCCCCC(=O)NCCO [PEA, N-palmitoylethanolamine]
